Tests used:
DDR1 = DDR1 LanthaScreen Europium Kinase Binding assay; details: 5 nM DDR1, 1 hour at room temperature, Ki from IC50 by Cheng-Prusoff, read-out: Ki DDR1
Experimental: (§1) DDR1 and DDR2 binding assays were performed using Life Technologies LanthaScreen™ Europium Kinase Binding assay. The compounds were incubated with 5 nM DDR1 (Carna Biosciences) or 5 nM DDR2 (Life Technologies) for 1 hour at room temperature in white 384-well OptiPlate (PerkinElmer), containing 20 nM or 10 nM Kinase Tracer 178 respectively and 2 nM Europium labelled anti-GST antibody (Life Technologies) in assay buffer (50 mM HEPES pH 7.5, 10 mM MgCl2, 1 mM EGTA and 0.01% BRIJ35). The ratio of fluorescence emission 665 nm/615 nm after excitation at 340 nm was obtained using the Tecan Spark 20M plate reader. IC50 values were determined in GraphPad Prism 8.0 software, using 4 parameter model: log(inhibitor) vs. response. IC50 values were converted in Ki using the Cheng-Prusoff equation (Ki=IC50/(1+[Tracer]/Kd).

DDR2 [1] = experiment: DDR2 LanthaScreen Europium Kinase Binding assay; details: 5 nM DDR2, 1 hour at room temperature, Ki from IC50 by Cheng-Prusoff, read-out: Ki DDR2
Experimental: as §1

DDR1 receptor = experiment: DDR1 cell based assay (PathHunter U2OS DDR1); details: U2OS-DDR1 cells, bovine Type II Collagen 20 μg/ml stimulation
Experimental: The inhibition of DDR1 receptor activation by compounds was evaluated by PathHunter® U2OS DDR1 assay (Eurofins DiscoverX), according to the manufacturer's instructions. Briefly, U2O5-DDR1 cells were seeded in white 384-well plates at a density of 5000 cells/well and incubated for 2 hours at 37° C. and 5% CO2. Cells were then treated with compounds at different concentrations and incubated for 30 minutes, before stimulation with bovine Type II Collagen 20 μg/ml and incubation overnight at 37° C. and 5% CO2. PathHunter Detection Reagents were prepared according to the protocol provided by DiscoverX and 20 μl/well of this mix were added to each well. After incubating the plates for 1 hour at room temperature in the dark, luminescence signal was acquired with a plate reader. Raw data were normalized to vehicle control (0% for normalization) and positive control (100% for normalization; cells treated with 20 μg/ml collagen II) and IC50 parameters were calculated in GraphPad Prism 8.0 software, using sigmoidal dose-response curve fitting with variable slope.

DDR2 [2] = experiment: DDR2 cell based assay (phospho-ELISA in HEK293T-DDR2 cells); set-up: species or system human; details: DDR2 phosphorylation, bovine Type II Collagen 50 μg/ml, read-out: IC50DDR2
Experimental: The inhibition of DDR2 phosphorylation by compounds was evaluated in HEK293T-DDR2 recombinant cells by phospho-ELISA assay. Briefly, HEK293T-DDR2 cells were seeded in poly-D-lysine-coated 24-well plates at a density of 250.000 cells/well and incubated for 1.5 hours at 37° C. and 5% CO2 in DMEM+10% FBS. After that, the medium was changed to serum-free DMEM and cells were incubated for 3 hours. Then. test compounds were added at different concentrations 30 minutes before stimulation with bovine Type II Collagen at 50 μg/ml for further 3 hours. For DDR2 phospho-ELISA assay (DuoSet IC Human Phospho-DDR2; R&D Systems), protein extracts were obtained by adding 60 μl/well of lysis buffer prepared according to the manufacturer's instructions.
Protein concentration in the samples was determined by BCA assay and the levels of phospho-DDR2 were determined following R&D Systems indications. Raw data were normalized to maximal inhibition control (0% for normalization) and positive control (100% for normalization; cells treated with 20 μg/ml collagen II) and IC50 parameters were calculated in GraphPad Prism 8.0 software, using sigmoidal dose-response curve fitting with variable slope.

SMILES	Ki (DDR1) [nM]	Ki (DDR2 [1]) [nM]	IC50 (DDR1 receptor) [nM]	IC50 (DDR2 [2]) [nM]
CN1CCN(Cc2cc(C(=O)Nc3ccc4c(c3)N(Cc3nccnc3N)CC4)cc(C(F)(F)F)c2)CC1 [Example 5, N-(1-((3-aminopyrazin-2-yl)methyl)indolin-6-yl)-3-((4-methylpiperazin-1-yl)methyl)-5-(trifluoromethyl)benzamide]	< 25	< 25	< 25	25 to 50
CC(=O)Nc1ccc(CN2CCc3ccc(C(=O)Nc4ccc(CN5CCN(C)CC5)c(C(F)(F)F)c4)cc32)cn1 [Example 13, 1-((6-acetamidopyridin-3-yl)methyl)-N-(4-((4-methylpiperazin-1-yl)methyl)-3-(trifluoromethyl)phenyl)indoline-6-carboxamide]	< 25	25 to 50	< 25	50 to 80
COCCn1cc(Nc2ncc(CN3CCc4ccc(C(=O)Nc5cccc(C(F)(F)F)c5)cc43)cn2)cn1 [Example 16, 1-((2-((1-(2-methoxyethyl)-1H-pyrazol-4-yl)amino)pyrimidin-5-yl)methyl)-N-(3-(trifluoromethyl)phenyl)indoline-6-carboxamide]	< 25	< 25	< 25	< 25
CN1CCN(Cc2cc(C(=O)Nc3ccc4c(c3)N(Cc3cnc(Nc5cnn(C)c5)nc3)CC4)cc(C(F)(F)F)c2)CC1 [Example 4, N-(1-((2-((1-methyl-1H-pyrazol-4-yl)amino)pyrimidin-5-yl)methyl)indolin-6-yl)-3-((4-methylpiperazin-1-yl)methyl)-5-(trifluoromethyl)benzamide]	< 25	< 25	< 25	< 25
CNc1ccc(CN2CCc3ccc(C(=O)Nc4ccc(CN5CCN(C)CC5)c(C(F)(F)F)c4)cc32)cn1 [Example 14, 1-((6-(methylamino)pyridin-3-yl)methyl)-N-(4-((4-methylpiperazin-1-yl)methyl)-3-(trifluoromethyl)phenyl)indoline-6-carboxamide]	< 25	25 to 50	< 25	50 to 80
CN1CCN(Cc2cc(NC(=O)c3ccc4c(c3)N(Cc3cnc(Nc5cnn(C)c5)nc3)CC4)cc(C(F)(F)F)c2)CC1 [Example 18, 1-((2-((1-methyl-1H-pyrazol-4-yl)amino)pyrimidin-5-yl)methyl)-N-(3-((4-methylpiperazin-1-yl)methyl)-5-(trifluoromethyl)phenyl)indoline-6-carboxamide]	< 25	< 25	< 25	< 25

From patent US20240190847A1, “INDOLINE DERIVATIVES AS DDR1 AND DDR2 INHIBITORS” (CHIESI FARMACEUTICI S.P.A., priority 2021, published 2024)
